The target in assay [1] is T1, Rat NHE-3 (Rattus norvegicus, UniProt P26433).
T1 construct: expressed in transfected cells; host or cells: Opossum kidney (OK) cells (ATCC), transfected by electroporation
The assay is described as follows: Cell-based assay of NHE-3 activity (persistent inhibition, after washout). As to conditions: OK cells with rat NHE-3 gene, 60 min incubation, recovery initiated 40 min after compound washout; for IC50: read-out: Rat NHE3 pIC50 (persistent) (converted). The method, then: The ability of compounds to inhibit Rat NHE-3-mediated Na^+-dependent H^+ antiport after application and washout was measured using a modification of the pH sensitive dye method described above in Example 74. Opossum kidney (OK) cells were obtained from the ATCC and propagated per their instructions. The rat NHE-3 gene was introduced into OK cells via electroporation, and cells were seeded into 96 well plates and grown overnight. Medium was aspirated from the wells, cells were washed twice with NaCl-HEPES buffer (100 mM NaCl, 50 mM HEPES, 10 mM glucose, 5 mM KCl, 2 mM CaCl2, 1 mM MgCl2, pH 7.4), then overlayed with NaCl-HEPES buffer containing 0-30 μM test compound. After a 60 min incubation, the test drug containing buffer was aspirated from the cells, cells were washed twice with NaCl-HEPES buffer without drug, then incubated for 30 min at room temperature with NH4Cl-HEPES buffer (20 mM NH4Cl, 80 mM NaCl, 50 mM HEPES, 5 mM KCl, 2 mM CaCl2, 1 mM MgCl2, pH 7.4) containing 5 μM BCECF-AM. Cells were washed twice with ammonium free, Na^+-free HEPES (100 mM choline, 50 mM HEPES, 10 mM glucose, 5 mM KCl, 2 mM CaCl2, 1 mM MgCl2, pH 7.4) and incubated in the same buffer for 10 minutes at room temperature to lower intracellular pH. […] Initial rates were plotted as the average 2 or more replicates, and pIC50 values were estimated using GraphPad Prism.

Assay [2] concerns the target T1, Rat NHE-3. Kind of assay: Cell-based assay of NHE-3 activity (rat NHE-3 prompt inhibition). Particulars: OK cells with rat NHE-3 gene, compound present during pH recovery; for IC50: read-out: Rat NHE3 pIC50 (prompt) (converted). On the procedure:
(§1) Rat or human NHE-3-mediated Na^+-dependent H^+ antiport was measured using a modification of the pH sensitive dye method originally reported by Paradiso (Proc. Natl. Acad. Sci. USA. (1984) 81(23): 7436-7440). Opossum kidney (OK) cells were obtained from the ATCC and propagated per their instructions. The rat NHE-3 gene (GenBank M85300) or the human NHE-3 gene (GenBank NM_004174.1) was introduced into OK cells via electroporation, and cells were seeded into 96 well plates and grown overnight. Medium was aspirated from the wells, cells were washed twice with NaCl-HEPES buffer (100 mM NaCl, 50 mM HEPES, 10 mM glucose, 5 mM KCl, 2 mM CaCl2, 1 mM MgCl2, pH 7.4), then incubated for 30 min at room temperature with NH4Cl-HEPES buffer (20 mM NH4Cl, 80 mM NaCl, 50 mM HEPES, 5 mM KCl, 2 mM CaCl2, 1 mM MgCl2, pH 7.4) containing 5 μM bis(acetoxymethyl) 3,3′-(3′,6′-bis(acetoxymethoxy)-5-((acetoxymethoxy)carbonyl)-3-oxo-3H-spiro[isobenzofuran-1,9′-xanthene]-2′,7′-diyl)dipropanoate (BCECF-AM). Cells were washed twice with Ammonium free, Na^+-free HEPES (100 mM choline, 50 mM HEPES, 10 mM glucose, 5 mM KCl, 2 mM CaCl2, 1 mM MgCl2, pH 7.4) and incubated in the same buffer for 10 minutes at room temperature to lower intracellular pH. […] Initial rates were plotted as the average 2 or more replicates, and pIC50 values were estimated using GraphPad Prism.

A further assay deals with T2, human NHE-3 (Homo sapiens, UniProt P48764).
T2 construct: expressed in transfected cells; host or cells: Opossum kidney (OK) cells (ATCC), transfected by electroporation
T2 sequence (P48764 26-834): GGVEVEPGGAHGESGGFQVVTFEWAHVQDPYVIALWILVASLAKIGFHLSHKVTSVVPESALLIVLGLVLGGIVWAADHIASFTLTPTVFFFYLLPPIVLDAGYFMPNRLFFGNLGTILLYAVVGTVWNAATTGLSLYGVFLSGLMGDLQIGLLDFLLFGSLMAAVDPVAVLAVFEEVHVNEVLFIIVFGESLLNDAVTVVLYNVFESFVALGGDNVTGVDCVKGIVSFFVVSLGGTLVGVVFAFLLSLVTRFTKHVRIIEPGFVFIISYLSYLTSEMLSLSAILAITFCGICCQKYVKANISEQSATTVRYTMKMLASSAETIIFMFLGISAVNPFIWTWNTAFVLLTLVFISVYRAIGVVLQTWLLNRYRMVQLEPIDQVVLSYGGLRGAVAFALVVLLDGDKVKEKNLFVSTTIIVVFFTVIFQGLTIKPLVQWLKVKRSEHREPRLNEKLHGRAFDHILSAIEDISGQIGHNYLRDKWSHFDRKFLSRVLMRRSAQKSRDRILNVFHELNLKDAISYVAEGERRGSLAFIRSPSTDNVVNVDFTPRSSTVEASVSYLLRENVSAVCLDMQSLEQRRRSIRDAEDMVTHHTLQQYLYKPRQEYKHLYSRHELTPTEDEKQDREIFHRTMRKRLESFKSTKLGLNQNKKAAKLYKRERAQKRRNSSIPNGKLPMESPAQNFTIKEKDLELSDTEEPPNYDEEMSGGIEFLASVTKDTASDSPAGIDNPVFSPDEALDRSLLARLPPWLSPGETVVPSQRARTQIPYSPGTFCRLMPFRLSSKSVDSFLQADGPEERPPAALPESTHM
Kind of assay: Cell-based assay of NHE-3 activity (human NHE3 inhibition assay). As to conditions: OK cells with human NHE-3 gene, BCECF pH dye, 0-30 μM test compound; for IC50: read-out: Human NHE3 pIC50 (converted). On the procedure:
as §1

T1 sequence (P26433 29-831): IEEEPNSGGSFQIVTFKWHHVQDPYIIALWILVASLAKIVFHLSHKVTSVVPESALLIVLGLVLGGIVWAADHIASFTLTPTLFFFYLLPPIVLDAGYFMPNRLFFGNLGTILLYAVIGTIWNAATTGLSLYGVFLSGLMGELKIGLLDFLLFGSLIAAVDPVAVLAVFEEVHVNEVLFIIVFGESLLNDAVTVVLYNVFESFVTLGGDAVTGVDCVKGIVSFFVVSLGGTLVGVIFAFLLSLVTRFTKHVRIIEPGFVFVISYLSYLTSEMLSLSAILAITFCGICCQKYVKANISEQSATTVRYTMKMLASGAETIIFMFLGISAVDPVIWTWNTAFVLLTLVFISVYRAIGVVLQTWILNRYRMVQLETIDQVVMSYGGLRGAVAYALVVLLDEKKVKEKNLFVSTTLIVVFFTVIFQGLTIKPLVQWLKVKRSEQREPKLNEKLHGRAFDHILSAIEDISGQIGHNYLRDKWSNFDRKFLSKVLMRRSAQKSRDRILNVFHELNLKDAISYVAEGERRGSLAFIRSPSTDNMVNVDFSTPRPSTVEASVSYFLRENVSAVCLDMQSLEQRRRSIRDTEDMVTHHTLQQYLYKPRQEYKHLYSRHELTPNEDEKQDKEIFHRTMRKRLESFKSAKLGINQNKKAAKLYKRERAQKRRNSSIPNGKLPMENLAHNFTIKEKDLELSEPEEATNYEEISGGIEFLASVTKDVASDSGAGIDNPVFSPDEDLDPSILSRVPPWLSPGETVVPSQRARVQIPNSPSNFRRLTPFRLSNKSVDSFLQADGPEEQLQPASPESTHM

Turning to `CN1Cc2c(Cl)cc(Cl)cc2[C@H](c2cccc(S(=O)(=O)NCCOCCOCCNC(=O)NCCN(CCNC(=O)NCCOCCOCCNS(=O)(=O)c3cccc([C@@H]4CN(C)Cc5c(Cl)cc(Cl)cc54)c3)C(=O)CCOCCOCCOCCOCCOCCOCCOCCOCCOCCC(=O)N(CCNC(=O)NCCOCCOCCNS(=O)(=O)c3cccc([C@@H]4CN(C)Cc5c(Cl)cc(Cl)cc54)c3)CCNC(=O)NCCOCCOCCNS(=O)(=O)c3cccc([C@@H]4CN(C)Cc5c(Cl)cc(Cl)cc54)c3)c2)C1` [Example 61], the “Rat NHE3 pIC50 (persistent)” value on Rat NHE-3 [1] is “B (B NHE3 pIC50 5-7)”. The “Rat NHE3 pIC50 (prompt)” value at Rat NHE-3 [2] was “B (B NHE3 pIC50 5-7)”. For the same compound, at human NHE-3, the “Human NHE3 pIC50” value is “C (C NHE3 pIC50 > 7)”.
Consider `CN1Cc2c(Cl)cc(Cl)cc2[C@H](c2cccc(S(=O)(=O)NCCOCCOCCNC(=O)CCC(CCC(=O)NCCOCCOCCNS(=O)(=O)c3cccc([C@@H]4CN(C)Cc5c(Cl)cc(Cl)cc54)c3)(CCC(=O)NCCOCCOCCNS(=O)(=O)c3cccc([C@@H]4CN(C)Cc5c(Cl)cc(Cl)cc54)c3)[N+](=O)[O-])c2)C1` [Example 1, N1,N7-bis(2-(2-(2-(3-((S)-6,8-dichloro-2-methyl-1,2,3,4-tetrahydroisoquinolin-4-yl)phenylsulfonamido)ethoxy)ethoxy)ethyl)-4-(3-(2-(2-(2-(3-((S)-6,8-dichloro-2-methyl-1,2,3,4-tetrahydroisoquinolin-4-yl)phenylsulfonamido)ethoxy)ethoxy)ethylamino)-3-oxopropyl)-4-nitroheptanediamide], for which the figures for the IC50 at Rat NHE-3 [1], at Rat NHE-3 [2] and on human NHE-3 were less than 100 nM, 100 to 10000 nM and 100 to 10000 nM, respectively.
As to `CN1Cc2c(Cl)cc(Cl)cc2[C@H](c2cccc(S(=O)(=O)NCCOCCOCCOCCNC(=O)CCC(CCC(=O)NCCOCCOCCOCCNS(=O)(=O)c3cccc([C@@H]4CN(C)Cc5c(Cl)cc(Cl)cc54)c3)(CCC(=O)NCCOCCOCCOCCNS(=O)(=O)c3cccc([C@@H]4CN(C)Cc5c(Cl)cc(Cl)cc54)c3)NCc3ccc(-c4ccc(Cl)cc4)cc3)c2)C1` [Example 19, 4-((4′-chlorobiphenyl-4-yl)methylamino)-4-(1-(3-((S)-6,8-dichloro-2-methyl-1,2,3,4-tetrahydroisoquinolin-4-yl)phenylsulfonamido)-13-oxo-3,6,9-trioxa-12-azapentadecan-15-yl)-N^1,N^7-bis(2-(2-(2-(2-(3-((S)-6,8-dichloro-2-methyl-1,2,3,4-tetrahydroisoquinolin-4-yl)phenylsulfonamido)ethoxy)ethoxy)ethoxy)ethyl)heptanediamide], the IC50 on Rat NHE-3 [1] was less than 100 nM; on Rat NHE-3 [2], more than 10000 nM; at human NHE-3, more than 10000 nM.
Turning to `CN1Cc2c(Cl)cc(Cl)cc2[C@H](c2cccc(S(=O)(=O)NCCOCCOCCOCCn3cc(CN(Cc4cn(CCOCCOCCOCCNS(=O)(=O)c5cccc([C@@H]6CN(C)Cc7c(Cl)cc(Cl)cc76)c5)nn4)Cc4cn(CCOCCOCCOCCNS(=O)(=O)c5cccc([C@@H]6CN(C)Cc7c(Cl)cc(Cl)cc76)c5)nn4)nn3)c2)C1` [Example 18, (S,S)—N,N′,N″-(2,2′,2″-(2,2′,2″-(2,2′,2″-(2,2′,2″-(4,4′,4″-nitrilotris(methylene)tris(1H-1,2,3-triazole-4,1-diyl))tris(ethane-2,1-diyl))tris(oxy)tris(ethane-2,1-diyl))tris(oxy)tris(ethane-2,1-diyl))tris(oxy)tris(ethane-2,1-diyl))tris(3-((S)-6,8-dichloro-2-methyl-1,2,3,4-tetrahydroisoquinolin-4-yl)benzenesulfonamide)], the IC50 on Rat NHE-3 [1] is more than 10000 nM; at Rat NHE-3 [2], 100 to 10000 nM; on human NHE-3, 100 to 10000 nM.
In the case of `CCCCCCCCOc1ccc(CNC(CCC(=O)NCCOCCOCCOCCNS(=O)(=O)c2cccc([C@@H]3CN(C)Cc4c(Cl)cc(Cl)cc43)c2)(CCC(=O)NCCOCCOCCOCCNS(=O)(=O)c2cccc([C@@H]3CN(C)Cc4c(Cl)cc(Cl)cc43)c2)CCC(=O)NCCOCCOCCOCCNS(=O)(=O)c2cccc([C@@H]3CN(C)Cc4c(Cl)cc(Cl)cc43)c2)cc1` [Example 20, 4-(1-(3-((S)-6,8-dichloro-2-methyl-1,2,3,4-tetrahydroisoquinolin-4-yl)phenylsulfonamido)-13-oxo-3,6,9-trioxa-12-azapentadecan-15-yl)-N^1,N^7-bis(2-(2-(2-(2-(3-((S)-6,8-dichloro-2-methyl-1,2,3,4-tetrahydroisoquinolin-4-yl)phenylsulfonamido)ethoxy)ethoxy)ethoxy)ethyl)-4-(4-(octyloxy)benzylamino)heptanediamide], the IC50 on Rat NHE-3 [1] was less than 100 nM; at Rat NHE-3 [2], 100 to 10000 nM; on human NHE-3, less than 100 nM.

The values above are taken from patent US10385024B2, “Compounds and methods for inhibiting NHE-mediated antiport in the treatment of disorders associated with fluid retention or salt overload and gastrointestinal tract disorders” (Ardelyx, Inc., priority 2012, dated 2019).
